According to US9540337B2, “Gamma-glutamyl transpeptidase inhibitors and methods of use” (The Board of Regents of the University of Oklahoma, priority 2012, dated 2017):
Values joined by “and” are separate entries in the source; they are usually repeats but may differ in a detail not shown here. Equal entries are not always repeated. Where two headings read alike, the source gives them in different places.

Legend:
[1] = biological target: T1, hGGT (Homo sapiens, UniProt P19440); experiment: L-Glutamate Release Assay (Hydrolysis of GSH); assay type: biochemical; conditions: for Ki: read-out: GSH Kii
T1 construct: lacking the transmembrane domain; made in house; host or cells: Pichia pastoris
T1 sequence (P19440 381-569 limits assumed): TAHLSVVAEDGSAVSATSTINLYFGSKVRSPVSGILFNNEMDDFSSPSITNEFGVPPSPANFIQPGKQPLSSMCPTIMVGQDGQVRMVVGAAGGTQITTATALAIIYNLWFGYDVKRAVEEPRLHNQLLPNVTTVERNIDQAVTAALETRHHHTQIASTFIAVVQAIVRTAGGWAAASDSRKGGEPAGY
T1 sequence (P19440 27-380 limits assumed): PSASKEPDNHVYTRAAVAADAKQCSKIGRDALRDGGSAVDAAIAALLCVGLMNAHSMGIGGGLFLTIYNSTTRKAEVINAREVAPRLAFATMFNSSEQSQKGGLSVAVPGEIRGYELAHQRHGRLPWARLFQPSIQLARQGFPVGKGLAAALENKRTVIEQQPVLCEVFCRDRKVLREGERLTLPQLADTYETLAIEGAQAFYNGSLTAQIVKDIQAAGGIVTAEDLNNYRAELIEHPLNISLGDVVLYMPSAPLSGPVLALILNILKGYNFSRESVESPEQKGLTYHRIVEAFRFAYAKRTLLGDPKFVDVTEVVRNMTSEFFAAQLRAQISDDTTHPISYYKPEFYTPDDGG
Protocol: L-Glutamate Release Assay (Hydrolysis of GSH): This assay measures the production of glutamate from the hydrolysis of GSH by GGT enzyme and has been described in detail previously. The concentration of the substrate, GSH, was varied from 5 μM to 20 μM. The concentration of the inhibitors, OU749 and its analogs, were varied from 15.6 μM to 250 μM. The reaction was initiated with the addition of 10 mU hGGT. […] All compounds were also evaluated as inhibitors of glutamate dehydrogenase, the enzyme in the second half of the L-glutamate release assay. None of the compounds in this study inhibited glutamate dehydrogenase.

[2] = biological target: T2, Human GGT1 (hGGT) (Homo sapiens, UniProt P19440); experiment: L-GpNA Transpeptidation Assay with GlyGly as acceptor; assay type: biochemical; set-up: lacking the transmembrane domain; made in house; host or cells: Pichia pastoris; conditions: for fold change in L-GpNA Kii (transpeptidation) relative to Compound 16: weaker than Compound 16
T2 sequence (P19440 381-569 limits assumed): as the sequence (P19440 381-569 limits assumed) above
T2 sequence (P19440 27-380 limits assumed): as the sequence (P19440 27-380 limits assumed) above
Protocol: Transpeptidation Reaction: The same assay buffer was used for both the hydrolysis reaction and the transpeptidation reaction. The transpeptidation reaction included 40 mM glycylglycine (glygly, Sigma, St. Louis, Mo.) as the acceptor. […] The concentration of L-GpNA was 3 mM for experiments in which the concentration of glygly was varied. To initiate the transpeptidation reaction, 4 mU GGT were added.
1. […] 3 and 4. […] 5 (25).
L-GpNA Transpeptidation Assay: The assay has been described previously. […] The concentration of L-GpNA was 3 mM for experiments in which the concentration of GlyGly was varied. To initiate the transpeptidation reaction, 4 mU GGT were added.

[3] = biological target: T2, Human GGT1 (hGGT); experiment: D-GpNA Hydrolysis Assay (release of pNA, 405 nm, pH 7.4); conditions: for fold less effective than OU749 in inhibiting hydrolysis of D-GpNA: relative to OU749; for Vo (maximum velocity at zero activator) / V∞ (maximum rate at infinite activator): Hydrolysis D-GpNA, Table 3; for maximal fold induction: human
Protocol: (§1) Enzyme Isolation: Human GGT1 (P19440), lacking the transmembrane domain, was expressed in Pichia pastoris and isolated as previously described (14). […] One unit of GGT activity was defined as the amount of enzyme that released 1 μmol of paranitroaniline/min at 37° C. at pH 7.4 in the transpeptidation reaction.
The reaction was initiated with the addition of 19 mU GGT. The reaction was incubated at 37° C. and monitored continuously at 405 nm by a Bio-Rad model 680 microplate reader with Microplate Manager 5.2 software (Bio-Rad, Hercules, Calif.).
Data Analysis: Samples in each experiment were run in triplicate. Each inhibitor was evaluated in two or more independent experiments. Double reciprocal plots were generated to assess data quality and determine the correct rate equation for data fitting. Data were fitted using the proper rate equation and the Marquardt-Levenberg algorithm supplied with the Enzfitter program (BIOSOFT, Cambridge, UK). Kinetic parameters with standard errors were estimated using a simple weighting method.
Data adhering to Michaelis-Menten Kinetics were fitted to eq. 1. Data for initial rate patterns with D-, L-GpNA varied at different fixed levels of glygly were fitted to eq. […] Data for competitive and uncompetitive inhibition were fitted to eqs. 3 and 4. Data for the dependence of Vmax and Vmax/KD-GpNA on the concentration of activator were fitted using eq. 5 (25).
In eqs 1-6, Vmax are the initial and maximum rates, respectively, Ka and Kb are Michaelis constants for substrates A and B, respectively, and Kis and Kii are slope and intercept inhibition constants. In eq. 5, a is the value of Vmax or Vmax/KD-GpNA at zero activator/inhibitor, KID is the activation or inhibition constant, and KIN is a constant that causes the parameter to go to a constant value at infinite concentrations of X, the activator/inhibitor. The product a(KID/KIN) is the value of Vmax or Vmax/KD-GpNA at infinite activator/inhibitor (25). Data for noncompetitive inhibition were fitted to eq. 6. Data for the dependence of Vmax and Vmax/KD-GpNA on the concentration of activator were fitted using […].
as §1, with “hGGT” for “Human GGT1”, “described.” for “described (14).”, “reaction with L-GpNA.” for “reaction.”
D-GpNA Hydrolysis Assay: The assay was carried out as previously described. […] The reaction was initiated with the addition of 19 mU GGT as determined by the L-GpNA transpeptidation assay. The reaction was incubated at 37° C. and monitored continuously at 405 nm.

[4] = GlyGly varied, 3 mM L-GpNA, Table 2, read-out: Transpeptidation GlyGly Kis
[5] = L-GpNA varied, 40 mM GlyGly, Table 2, read-out: Transpeptidation L-GpNA Kii
[6] = Table 4, read-out: L-GpNA with GlyGly Kii
[7] = pH 7.4, read-out: Fold Activation
[8] = read-out: activation of the Vmax for hydrolysis (V∞/Vo)
[9] = Table 3, read-out: Transpeptidation GlyGly Kis
[10] = Table 3, read-out: Transpeptidation L-GpNA Kii
[11] = Table 5, read-out: GlyGly with L-GpNA Kis
[12] = Table 5, read-out: L-GpNA with GlyGly Kii

SMILES	Ki [2, 4]	Ki [3] [µM]	Ki [2, 5]	Vo (maximum velocity at zero activator) [3] [mM/min/nM]	V∞ (maximum rate at infinite activator) [3] [mM/min/nM]	maximal fold induction [3, 7]	Ki [2, 9]	further results
COc1ccc(Cc2nnc(NS(=O)(=O)c3ccccc3)s2)cc1 [Compound 1]	54.1 ± 3.9 µM							Ki ([1]; GSH hydrolysis, Table 4): 376 ± 50 µM
COc1ccc(Cc2nnc(NS(=O)(=O)c3ccc(C)cc3)s2)cc1 [Compound 2]	10 ± 0.4 µM	73.3 ± 4	22.7 ± 0.5 µM					Ki ([1]; GSH hydrolysis, Table 4): 506 ± 75 µM; fold less potent than OU749 in inhibiting GSH hydrolysis ([1]; relative to OU749): 1.3 fold
COc1ccc(Cc2nnc(NS(=O)(=O)c3ccc(Cl)cc3Cl)s2)cc1 [Compound 4]	3.7 ± 1 µM	75.6 ± 7.2	15.7 ± 0.7 µM					Ki ([1]; GSH hydrolysis, Table 6): 950 ± 242 µM
COc1ccc(Cc2nnc(NS(=O)(=O)c3ccc(NO)cc3)s2)cc1 [Compound 5]	25.7 ± 1.3 µM	149 ± 13.6	64.4 ± 5.1 µM					fold less effective than OU749 in inhibiting hydrolysis of D-GpNA [3]: 2-5 fold
COc1ccc(Cc2nnc(NS(=O)(=O)c3ccc(C(C)(C)C)cc3)s2)cc1 [Compound 7]	143 ± 8.7 µM	341 ± 6.4	150 ± 13 µM					fold less effective than OU749 in inhibiting hydrolysis of D-GpNA [3]: 2-5 fold; Ki ([1]; GSH hydrolysis, Table 4): > 250 µM
COc1ccc(Cc2nnc(NS(=O)(=O)c3ccc(Cl)c(Cl)c3)s2)cc1 [Compound 8]	10.8 ± 0.8 µM	3160 ± 90	18.2 ± 0.7 µM					Ki ([1]; GSH hydrolysis, Table 6): > 250 µM
COc1ccc(Cc2nnc(NS(=O)(=O)c3ccc(OC)cc3)s2)cc1 [Compound 9]	133 ± 10.3 µM	3800 ± 720						Ki ([1]; GSH hydrolysis, Table 4): > 250 µM; Ki [2, 6]: 149 ± 23 µM
COc1ccc(Cc2nnc(NS(=O)(=O)c3ccc(Cl)cc3)s2)cc1 [Compound 10]	13.4 ± 0.8 µM		32.5 ± 0.9 µM					Ki ([3]; read-out: Hydrolysis D-GpNA Kii, D-GpNA substrate, Table 2): 5530 ± 1460 µM; Ki ([1]; GSH hydrolysis, Table 6): > 250 µM
COc1ccc(Cc2nnc(NS(=O)(=O)c3ccc([N+](=O)[O-])cc3)s2)cc1 [Compound 11]	96 µM and 95.7 µM		93 µM and 92.8 µM	1.59 ± 0.14	8.63 ± 1.21	5.43 ± 2.04		difference in affinity for D-γ-glutamyl and L-γ-glutamyl enzyme intermediates ([2]; human): 2.5 fold; fold change in GlyGly Kis (transpeptidation) relative to Compound 16 ([2]; increase relative to Compound 16): more than 2 fold; fold change in L-GpNA Kii (transpeptidation) relative to Compound 16 [2]: less than 2 fold
COc1ccc(Cc2nnc(NS(=O)(=O)c3ccc(C(F)(F)F)cc3)s2)cc1 [Compound 12]	46.3 ± 3.5 µM		117 ± 7.4 µM					
O=[N+]([O-])c1ccc(S(=O)(=O)Nc2nnc(Cc3ccccc3)s2)cc1 [Compound 13]				1.59 ± 0.06	9.09 ± 0.55	5.72 ± 0.32	59.6 ± 3.7 µM	maximal fold induction [3, 8]: 3 to 6; Ki [2, 10]: 111 ± 5.5 µM; fold change in L-GpNA Kii (transpeptidation) relative to Compound 16 [2]: ~2 fold
O=[N+]([O-])c1ccc(Cc2nnc(NS(=O)(=O)c3ccc([N+](=O)[O-])cc3)s2)cc1 [Compound 14]				1.27 ± 0.01	5.08 ± 0.41	4 ± 0.11	81.2 ± 8.8 µM	maximal fold induction [3, 8]: 3 to 6; Ki [2, 10]: 132 ± 5.5 µM
O=[N+]([O-])c1ccc(S(=O)(=O)Nc2nnc(Cc3cccc(Cl)c3)s2)cc1 [Compound 15]				1.30 ± 0.01	5.86 ± 0.23	4.51 ± 0.05	43.8 ± 7.7 µM	maximal fold induction [3, 8]: 3 to 6; Ki [2, 10]: 119 ± 7.1 µM; fold change in L-GpNA Kii (transpeptidation) relative to Compound 16 [2]: 2 fold
COc1ccc(Cc2nnc(NS(=O)(=O)c3ccc(N)cc3)s2)cc1 [Compound 21]								Ki ([3]; read-out: D-GpNA Kii, Table 4): 31 ± 1 µM; Ki ([1]; GSH hydrolysis, Table 4): 105 ± 14 µM; fold more potent than OU749 in inhibiting GSH hydrolysis ([1]; relative to OU749): 3.6 fold; Ki ([2]; Table 4, read-out: GlyGly with L-GpNA Kis): 10 ± 1 µM; Ki [2, 6]: 36 ± 1 µM
Cc1cccc(Cc2nnc(NS(=O)(=O)c3ccc(N)cc3)s2)c1 [Compound 24]								Ki ([3]; read-out: D-GpNA Kii, Table 5): 109 ± 4 µM; Ki ([1]; GSH hydrolysis, Table 5): 121 ± 5 µM; Ki [2, 11]: 30 ± 5 µM; Ki [2, 12]: 129 ± 17 µM
NS(=O)(=O)c1ccccc1.[Na] [SBS, Sodium benzenesulfonamide, reference compound]								fold less effective than OU749 in inhibiting hydrolysis of D-GpNA [3]: more than 2.000 fold; Ki ([2]; SBS, read-out: Kii, transpeptidation, vs L-GpNA): 28800 ± 1600 µM; Ki ([2]; SBS, read-out: Kis, transpeptidation, vs GlyGly): 2280 ± 70 µM
N[C@H](C(=O)O)[C@@H]1CC(Cl)=NO1 [acivicin, reference compound]								kon ([3]; pH 7.4, read-out: kon (second order rate constant)): 2.85 M⁻¹ s⁻¹; kon ([3]; pH 7.4, read-out: kon corrected for the presence of D-GpNA): 8 M⁻¹ s⁻¹

Further lines, with some results ahead:

Ki [2, 4]	Ki [3] [µM]	Ki [2, 5]	Vo (maximum velocity at zero activator) [3] [mM/min/nM]	V∞ (maximum rate at infinite activator) [3] [mM/min/nM]	maximal fold induction [3, 7]	Ki [2, 9]	SMILES	further results
			1.71 ± 0.09	7.70 ± 0.46	4.5 ± 0.63	44.4 ± 3.4 µM	O=[N+]([O-])c1ccc(S(=O)(=O)Nc2nnc(Cc3ccc(Cl)cc3)s2)cc1 [Compound 16]	maximal fold induction [3, 8]: 3 to 6; Ki [2, 10]: 61.9 µM; Ki ([2]; Table 7, read-out: L-GpNA with GlyGly Kii): 62 ± 2 µM
			2.62 ± 0.79	11.25 ± 4.27	4.29 ± 2.2	56.9 ± 8.3 µM	Cc1ccc(Cc2nnc(NS(=O)(=O)c3ccc([N+](=O)[O-])cc3)s2)cc1 [Compound 17]	maximal fold induction [3, 8]: 3 to 6; Ki [2, 10]: 113 ± 5.2 µM
			1.15 ± 0.01	5.08 ± 0.20	4.42 ± 0.64	34.3 ± 0.9 µM	Cc1cccc(Cc2nnc(NS(=O)(=O)c3ccc([N+](=O)[O-])cc3)s2)c1 [Compound 18]	maximal fold induction [3, 8]: 3 to 6; Ki [2, 10]: 121 ± 8.8 µM; fold change in L-GpNA Kii (transpeptidation) relative to Compound 16 [2]: 2 fold
			1.53 ± 0.09	5.39 ± 0.28	3.52 ± 0.6	31.8 ± 0.7 µM	O=[N+]([O-])c1ccc(S(=O)(=O)Nc2nnc(Cc3ccc(F)cc3)s2)cc1 [Compound 19]	maximal fold induction [3, 8]: 3 to 6
						10 µM and 10.3 µM	O=[N+]([O-])c1ccc(S(=O)(=O)Nc2nnc(Cc3ccc(Cl)c(Cl)c3)s2)cc1 [Compound 20]	Ki ([3]; read-out: D-GpNA Kii, Compound 20, Table 7): 78 ± 2 µM; Ki ([3]; read-out: Kii with D-GpNA, competitive inhibition of the hydrolysis reaction, Compound 20, competitive vs D-GpNA): 78 µM and 78.2 µM; Ki ([1]; Compound 20, inhibition of GSH hydrolysis, Table 7): 859 ± 83 µM
	29 ± 3						Nc1ccc(Cc2nnc(NS(=O)(=O)c3ccc(N)cc3)s2)cc1 [Compound 23]	Ki ([1]; GSH hydrolysis, Table 5): 102 ± 16 µM; Ki [2, 11]: 15 ± 1 µM; Ki [2, 12]: 181 ± 20 µM
	58 ± 6						Nc1ccc(S(=O)(=O)Nc2nnc(Cc3ccccc3)s2)cc1 [Compound 25]	Ki ([1]; GSH hydrolysis, Table 5): 242 ± 6 µM; Ki [2, 11]: 42 ± 2 µM; Ki [2, 12]: 74 ± 4 µM
	24 ± 2						Nc1ccc(S(=O)(=O)Nc2nnc(Cc3ccc(F)cc3)s2)cc1 [Compound 26]	Ki ([1]; GSH hydrolysis, Table 5): 355 ± 16 µM; Ki [2, 11]: 47 ± 7 µM; Ki [2, 12]: 58 ± 4 µM
